Measured values: PubChem BioAssay AID248 (DTP/NCI, 2004)
Several values for one entry are separate records, joined by “and”; a condition that tells them apart may be missing. Equal entries are not always repeated. Toxic doses and inconclusive results are not listed. Rule as the data show it: active = T/C of 150% or more; inactive = T/C below 125%.

Tested on: L1210 leukemia ip in BDF1 mice, survival T/C
Test: NCI In Vivo Anticancer Drug Screen. Data for tumor model L1210 Leukemia (intraperitoneal) in B6D2F1 (BDF1) mice
Conditions: endpoint: mean survival time, higher = longer survival
In short: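 In this screen, tumor-bearing mice given compound are compared to those given vehicle, and their survival values are reported as a treated-to-control quotient.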

[1] = dose: 12.5 mg/kg/injection, schedule: Q01DX009 (ip), vehicle: Klucel (hydroxypropylcellulose) (HPC)
[2] = dose: 100.0 mg/kg/injection, schedule: Q01DX001 (ip), vehicle: carboxymethylcellulose (CMC)
[3] = dose: 100.0 mg/kg/injection, schedule: Q04DX002 (ip), vehicle: saline
[4] = dose: 200.0 mg/kg/injection, schedule: Q04DX002 (ip), vehicle: saline
[5] = dose: 50.0 mg/kg/injection, schedule: Q01DX001 (ip), vehicle: carboxymethylcellulose (CMC)
[6] = dose: 100.0 mg/kg/injection, schedule: Q04DX003 (ip), vehicle: saline with Tween-80
[7] = dose: 200.0 mg/kg/injection, schedule: Q04DX003 (ip), vehicle: saline with Tween-80
[8] = dose: 400.0 mg/kg/injection, schedule: Q04DX003 (ip), vehicle: saline with Tween-80
[9] = dose: 50.0 mg/kg/injection, schedule: Q04DX003 (ip), vehicle: Klucel (hydroxypropylcellulose) (HPC)
[10] = dose: 100.0 mg/kg/injection, schedule: Q04DX003 (ip), vehicle: Klucel (hydroxypropylcellulose) (HPC)
[11] = dose: 200.0 mg/kg/injection, schedule: Q04DX003 (ip), vehicle: Klucel (hydroxypropylcellulose) (HPC)
[12] = dose: 25.0 mg/kg/injection, schedule: Q01DX009 (ip), vehicle: Klucel (hydroxypropylcellulose) (HPC)
[13] = dose: 50.0 mg/kg/injection, schedule: Q01DX009 (ip), vehicle: Klucel (hydroxypropylcellulose) (HPC)
[14] = dose: 100.0 mg/kg/injection, schedule: Q01DX009 (ip), vehicle: Klucel (hydroxypropylcellulose) (HPC)
[15] = dose: 400.0 mg/kg/injection, schedule: Q04DX003 (ip), vehicle: Klucel (hydroxypropylcellulose) (HPC)
[16] = dose: 200.0 mg/kg/injection, schedule: Q01DX009 (ip), vehicle: Klucel (hydroxypropylcellulose) (HPC)
[17] = dose: 400.0 mg/kg/injection, schedule: Q01DX009 (ip), vehicle: Klucel (hydroxypropylcellulose) (HPC)
[18] = dose: 100.0 mg/kg/injection, schedule: Q04DX002 (ip), vehicle: saline with Tween-80
[19] = dose: 200.0 mg/kg/injection, schedule: Q04DX002 (ip), vehicle: saline with Tween-80
[20] = dose: 400.0 mg/kg/injection, schedule: Q04DX002 (ip), vehicle: saline with Tween-80
[21] = dose: 100.0 mg/kg/injection, schedule: Q01DX009 (ip), vehicle: saline with Tween-80
[22] = dose: 200.0 mg/kg/injection, schedule: Q01DX009 (ip), vehicle: saline with Tween-80
[23] = dose: 400.0 mg/kg/injection, schedule: Q01DX009 (ip), vehicle: saline with Tween-80

Measured: T/C

CC[CH2][Pb]([CH2]CC)([CH2]CC)[O]C(=O)CCl
inactive: dose: 3.0 mg/kg/injection, schedule: Q01DX009 (ip), vehicle: Klucel (hydroxypropylcellulose) (HPC) 106 % of control | dose: 6.0 mg/kg/injection, schedule: Q01DX009 (ip), vehicle: Klucel (hydroxypropylcellulose) (HPC) 101 % of control | [1] 96 % of control

O=C(Nc1c(Cl)cc2c(c1Cl)Cc1cc([N+](=O)[O-])ccc1-2)C(Cl)Cl
inactive: [2] 98 % of control | dose: 200.0 mg/kg/injection, schedule: Q01DX001 (ip), vehicle: carboxymethylcellulose (CMC) 102 % of control | dose: 400.0 mg/kg/injection, schedule: Q01DX001 (ip), vehicle: carboxymethylcellulose (CMC) 98 % of control

CCN=C(N)C(N)=NCC
inactive: dose: 100.0 mg/kg/injection, schedule: Q01DX009 (ip), vehicle: saline 94 % of control | dose: 100.0 mg/kg/injection, schedule: Q04DX003 (ip), vehicle: saline 103 % of control | dose: 200.0 mg/kg/injection, schedule: Q01DX009 (ip), vehicle: saline 94 % of control | dose: 200.0 mg/kg/injection, schedule: Q04DX003 (ip), vehicle: saline 100 % of control | dose: 400.0 mg/kg/injection, schedule: Q01DX009 (ip), vehicle: saline 89 % of control | dose: 400.0 mg/kg/injection, schedule: Q04DX003 (ip), vehicle: saline 97 % of control

CCOCc1c(COc2ccc(Cl)cc2)n(C)c2ccccc12
inactive: [3] 98 % of control | [4] 98 % of control | dose: 400.0 mg/kg/injection, schedule: Q04DX002 (ip), vehicle: saline 104 % of control

Clc1ccnc2c1ccc1c(Cl)ccnc12
inactive: [5] 88 % of control

O=C(O)CC1CC=CCC1CC(=O)O (configuration not stated)
inactive: dose: 100.0 mg/kg/injection, schedule: Q01DX009 (ip), vehicle: saline sonified 95 % of control | dose: 200.0 mg/kg/injection, schedule: Q01DX009 (ip), vehicle: saline sonified 101 % of control | dose: 400.0 mg/kg/injection, schedule: Q01DX009 (ip), vehicle: saline sonified 104 % of control

COC1OC(CBr)C(OC(C)=O)C(OC(C)=O)C1OC(C)=O (configuration not stated)
inactive: [6] 93 % of control | [7] 98 % of control | [8] 98 % of control

N#CC(C#N)=C1CCC(=C(C#N)C#N)CC1
inactive: [9] 104 % of control | dose: 100.0 mg/kg/injection, schedule: Q01DX001 (ip), vehicle: Klucel (hydroxypropylcellulose) (HPC) 105 % of control | [10] 121 % of control | dose: 200.0 mg/kg/injection, schedule: Q01DX001 (ip), vehicle: Klucel (hydroxypropylcellulose) (HPC) 118 % of control | [11] 96 % of control | dose: 400.0 mg/kg/injection, schedule: Q01DX001 (ip), vehicle: Klucel (hydroxypropylcellulose) (HPC) 105 % of control

CCOP(=O)(OCC)C1C(C)N1C(=O)Nc1ccccc1 (configuration not stated)
inactive: [12] 106 % of control | [13] 105 % of control | [14] 110 % of control | [10] 101 % of control | [11] 100 % of control | [15] 106 % of control

Nc1scc2[nH]c3ccccc3[n+]12
inactive: [3] 100 % of control | [4] 104 % of control

O=C(Nc1ccc(Cl)cc1)Nc1ccc([N+](=O)[O-])cc1[N+](=O)[O-]
inactive: dose: 100.0 mg/kg/injection, schedule: Q04DX002 (ip), vehicle: Klucel (hydroxypropylcellulose) (HPC) 111 % of control | dose: 200.0 mg/kg/injection, schedule: Q04DX002 (ip), vehicle: Klucel (hydroxypropylcellulose) (HPC) 108 % of control | dose: 400.0 mg/kg/injection, schedule: Q04DX002 (ip), vehicle: Klucel (hydroxypropylcellulose) (HPC) 108 % of control

CC1(C)C2(SCCS2)C(C)(C)C12SCCS2
inactive: [14] 96 % of control | [16] 95 % of control | [17] 104 % of control

Cn1ncc2ccccc21
inactive: dose: 62.5 mg/kg/injection, schedule: Q01DX009 (ip), vehicle: other 101 % of control | dose: 125.0 mg/kg/injection, schedule: Q01DX009 (ip), vehicle: other 102 % of control | dose: 250.0 mg/kg/injection, schedule: Q01DX009 (ip), vehicle: other 93 % of control

CC(=O)OC1CCC2(C)C3CCC4(C)C(OC(=O)c5ccccc5)CCC4C3C3C(=O)OC32C1 (configuration not stated)
inactive: [10] 95 % of control | [11] 95 % of control | [15] 95 % of control

C[Si](C)(c1ccc(C(=O)Cl)cc1)c1ccc(C(=O)Cl)cc1
inactive: [18] 96 % of control | [19] 96 % of control | [20] 100 % of control

O=C1Cc2ccccc21
inactive: [21] 97 % of control | [6] 95 % of control | [22] 97 % of control | [7] 94 % of control | [23] 96 % of control | [8] 98 % of control

CN1CCCCC1CCC1c2ccccc2CCc2ccccc21 (configuration not stated)
inactive: dose: 1.56 mg/kg/injection, schedule: Q01DX009 (ip), vehicle: saline 104 % of control | dose: 3.12 mg/kg/injection, schedule: Q01DX009 (ip), vehicle: saline 104 % of control | dose: 6.25 mg/kg/injection, schedule: Q01DX009 (ip), vehicle: saline 98 % of control and 99 % of control | dose: 12.5 mg/kg/injection, schedule: Q01DX009 (ip), vehicle: saline 94 % of control and 103 % of control | dose: 25.0 mg/kg/injection, schedule: Q01DX009 (ip), vehicle: saline 107 % of control and 116 % of control

Cc1ccc(N=Nc2ccc(C)cc2NC(=O)Nc2cc(C)ccc2C)cc1
inactive: dose: 100.0 mg/kg/injection, schedule: Q01DX001 (ip), vehicle: saline with Tween-80 102 % of control | [21] 98 % of control | [18] 87 % of control and 89 % of control | dose: 200.0 mg/kg/injection, schedule: Q01DX001 (ip), vehicle: saline with Tween-80 109 % of control | [22] 106 % of control | [19] 91 % of control | dose: 400.0 mg/kg/injection, schedule: Q01DX001 (ip), vehicle: saline with Tween-80 90 % of control | [23] 102 % of control | [20] 95 % of control and 89 % of control

O=C1OC2CC3CC1C2C3 (configuration not stated)
inactive: dose: 5.0 mg/kg/injection, schedule: Q01DX001 (ip), vehicle: other 91 % of control | dose: 10.0 mg/kg/injection, schedule: Q01DX001 (ip), vehicle: other 91 % of control | dose: 10.0 mg/kg/injection, schedule: Q01DX001 (ip), vehicle: saline 101 % of control | [1] 98 % of control | dose: 20.0 mg/kg/injection, schedule: Q01DX001 (ip), vehicle: other 95 % of control | dose: 20.0 mg/kg/injection, schedule: Q01DX001 (ip), vehicle: saline 105 % of control | [12] 96 % of control | dose: 25.0 mg/kg/injection, schedule: Q04DX003 (ip), vehicle: Klucel (hydroxypropylcellulose) (HPC) 95 % of control | dose: 40.0 mg/kg/injection, schedule: Q01DX001 (ip), vehicle: other 94 % of control | dose: 40.0 mg/kg/injection, schedule: Q01DX001 (ip), vehicle: saline 99 % of control | [5] 108 % of control | [13] 88 % of control | [9] 88 % of control | dose: 75.0 mg/kg/injection, schedule: Q01DX001 (ip), vehicle: acetone 97 % of control | [2] 108 % of control

Nc1nc(=O)[nH]nc1SCc1ccccc1
inactive: dose: 100.0 mg/kg/injection, schedule: Q01DX001 (ip), vehicle: saline 104 % of control | dose: 200.0 mg/kg/injection, schedule: Q01DX001 (ip), vehicle: saline 98 % of control | dose: 400.0 mg/kg/injection, schedule: Q01DX001 (ip), vehicle: saline 98 % of control

Cc1ccc(NC(=O)Oc2ccc(Cl)cc2Cl)cc1NC(=O)Oc1ccc(Cl)cc1Cl
inactive: [14] 89 % of control | [16] 94 % of control | [17] 89 % of control
